Test results: a melting point compilation (Tetko et al.; mined from patent text by program, amines drawn as free bases though some values may be those of a salt)

melting point [°C]	SMILES
135 to 136	N#CC(C#N)=CCOCCc1ccccc1
72 to 75	C=CC(=N)NS(N)(=O)=O
79 to 80	CCC(CC)(CO)CCS(N)(=O)=O
114 to 119	COc1ccc(-c2csc3nc(C)c(CCN4CCC(c5noc6cc(F)ccc56)CC4)c(=O)n23)cc1
141 to 144	CN1C(=O)[C@]2(C)CC[C@](NCC(=O)N3CCC[C@H]3C#N)(C1=O)C2(C)C
107 to 109	O=C(O)CCC/C=C/c1ccc(-c2ccccc2)cc1
199 to 204	CNC(=O)c1cccc(F)c1Nc1nc(Nc2ccc3c(c2)N(CCOC)C(=O)CCC3)ncc1Cl
201 to 202	CC(C)Cn1c(CNC(=O)OC(C)(C)C)c(-c2ccc(F)cc2)c2cc(/C=C/C(=O)O)ccc2c1=O
257 to 259	CC(=O)NC1CCc2cc3c(cc21)CCC3 (stereo unspecified)
223	NS(=O)(=O)c1cccc(-c2noc(-c3cnn4ccc(-c5ccc(Cl)cc5)nc34)n2)c1
58 to 61	NCc1ccccc1N
211 to 213	N#Cc1ccc(Cn2cncn2)cc1-c1ccc(O)cc1
139 to 140	CC1=C(c2ccncc2)SCC(=O)N1C
278 to 279	CON=C1CN(c2nc3c(cc2F)c(=O)c(C(=O)O)cn3C2CC2)CC12CN(C(=O)OC(C)(C)C)C2
300 to 301	NS(=O)(=O)c1cc2c(=O)[nH]ccc2s1
212	CC1(N)CCN(C2=Nc3c(nc(Cl)nc3Nc3ccc(F)c(Cl)c3)CN2)CC1
50.5 to 51.5	COC(=O)c1c(C(F)F)nc(C(F)(F)F)c(C(=O)OC)c1CSC
197 to 198	COc1ccc(-c2ccc(C#N)cn2)cc1C=O
162 to 164	CCOc1cc(Nc2cccc3c2C(=O)N(C2CCC(=O)NC2=O)C3=O)ccc1OC (stereo unspecified)
152	O=C1CNN(Cc2cccc(C(F)(F)F)c2)C(=O)N1
172 to 174	COc1ccc(C2=NN(c3cnc4ccccc4n3)C(=O)[C@H]3CC=CC[C@@H]23)cc1Cl (relative stereo)
133 to 134	O=S(=O)(c1ccc(Cl)cc1)C1(c2nnn(Cc3ccccc3)n2)CCCCC1
210 to 212	Cn1nc2c(N)nc3ccccc3c2c1CCc1ccccc1

melting point [°C]	SMILES
103 to 105	O=C(CCc1cccnc1)NCCCCC1CCN(S(=O)(=O)c2ccc3ccccc3c2)CC1
44 to 45	CCCCCCCCCCC[C@@H](C[C@@H]1OC(=O)[C@H]1CCCCCC)OC(=O)[C@H](CC(C)C)NC=O
156 to 157	CCCCCCCCCCCCS(=O)(=O)Nc1cc(C(=O)Nc2ccccc2)ccc1OC
152 to 154	Cc1cc(NS(=O)(=O)c2ccc(F)cc2)cc(C)c1S(=O)(=O)C[N+](=O)[O-]
156 to 158	O=C1OC(=O)c2cc3c(cc21)CCOC3
75.5 to 76.5	COC(=O)c1ccccc1OS(=O)(=O)N(C)C
189 to 191	COC(=O)Nc1nc2ccc(SC[Si](C)(C)C)cc2[nH]1
174 to 175	CCN1CCCC1CNC(=O)c1cccc(NC(=O)N2CCc3cc(SC)c(C(F)(F)F)cc32)c1 (stereo unspecified)
> 300	O=C(O)c1c2c(nc3ccc(Br)cc13)-c1ccc(-c3ccccc3F)cc1CCC2
120 to 162	CNC(=O)N1CCC(C(c2ccc(F)cc2)N(Cc2ccc(F)cc2)C(=O)NC)CC1 (stereo unspecified)
93 to 95	CC(C)Nc1cccnc1N1CCN(C(=O)c2ccc(C(=O)NCCOCCO)cn2)CC1
80 to 81	COC(=O)CCn1nnnc1CC[C@H](NC(=O)OCc1ccccc1)C(=O)OC
92.5 to 94	CC1=CC(O)C(OC(=O)c2ccccc2Cl)C(C)(C)CC1=O (stereo unspecified)
155	Cc1c(C)c2c(c(C)c1O)CC[C@@](C)(CCO)O2
195 to 197	CN1CCN(CCCn2c(N)nc3ccccc32)CC1
88 to 89	CCOC(=O)CC1SC(c2cc(C(C)(C)C)c(O)c(C(C)(C)C)c2)N(CCCN(C)CCOc2ccc3c(c2)OCO3)C1=O (stereo unspecified)
127 to 130	CC1CCN(S(=O)(=O)c2cc(C#N)ccc2Oc2cc(Cl)ccc2Cl)CC1
135 to 137	CCCCc1nc(C(=O)C(C)(C)C)c(C#N)[nH]1
166 to 168	COc1ccc(Cl)cc1NC(=O)CN1CCN(CC(=O)N2CC=C(c3cccc(C(F)(F)F)c3)n3ncc(C#N)c32)CC1
200	CCOc1nc(-c2ccc(NC(=O)NCc3cccnc3)cc2)ccc1C(=O)NC
86 to 87	COc1ccccc1OCC1SCCN1C(=O)CS (stereo unspecified)
68	O=C(NCCCCCCCCCCCC(=O)OCC12CC3CC(CC(C3)C1)C2)NC12CC3CC(CC(C3)C1)C2
43 to 44	C[Si](C)(C)CCOC(=O)c1ccc(F)cc1N

melting point [°C]	SMILES
133 to 135	CC(=O)Nc1cc(C)c(N)cc1C
118 to 120	CCOC(=O)c1nc(NCC(c2ccccc2)c2ccccc2)c2ncn([C@@H]3O[C@H](CO)[C@@H](O)[C@H]3O)c2n1
220 to 222	CSc1nc(C)c(Cc2ccccc2)c(=O)[nH]1
141 to 142	C=C(N=[N+]=[N-])c1cn(COCCO)c(=O)[nH]c1=O
110 to 111	Nc1ccc(Cn2ncc3ccccc32)cc1
144 to 146	COc1cc(C(=O)O)ccc1-c1ccc(-c2ccccc2)c(-c2ccc3c(c2)C(C)(C)CCC3(C)C)c1
175 to 176	Cc1cc(OCc2ccc(-c3ccc(C(F)(F)F)c(F)c3)nc2C)ccc1OC(C)(C)C(=O)O
70 to 72	CCCc1c(OCCCOc2ccc3c(c2CCC)OC(C(=O)OC)CC3)ccc(C(C)=O)c1O (stereo unspecified)
153 to 155	Cn1ncc2c1CCCc1cn[nH]c1-2
106 to 107	COC(=O)c1ccnc(-c2cccc3cc(Cc4cccc(C(F)(F)F)c4)sc23)c1
190 to 191	CCCn1nc2c(N)nc3ccccc3c2c1CC(C)(C)NC(=O)C1CCCCC1
> 250	O=C1NC2COc3cc4c(cc3C2c2ccsc21)OCO4 (stereo unspecified)
216 to 218	CCOC(=O)C1=C(NC(C)=O)Oc2cc(O)ccc2C1c1cccnc1 (stereo unspecified)
94 to 96	COC(=O)c1ccccc1-c1cc(-c2ccc(Cl)cc2Cl)no1
199 to 201	O=c1oc(=O)n(-c2ccc(F)cc2)c2ccccc12
60 to 61	CC(C)CN(Cc1csc(C(C)C)n1)C(=O)N[C@H](C(=O)N[C@@H](Cc1ccccc1)C[C@H](O)[C@H](Cc1ccccc1)NC(=O)OCc1cncs1)C(C)C
127 to 130	O=C(CC(CC1CCCCC1)(C(=O)O)C(=O)O)c1ccco1
125 to 127	Cc1c(O)cccc1C(=O)N[C@@H](Cc1ccccc1)[C@H](O)C(=O)N1CSC(C)(C)[C@H]1C(=O)N[C@H]1CCSc2ccccc21
219 to 221	NS(=O)(=O)c1cc2ncccc2o1
92 to 94	CC(C)C1(CCc2ccccc2CO)CC(O)=C(Sc2sc3ccccc3c2C(C)(C)C)C(=O)O1 (stereo unspecified)
58 to 59	CCOc1nn(Cc2ccc(Cl)cc2Cl)cc1CCCO
166 to 168	O=C1CCC(N2C(=O)c3cccc(CNC(=O)OCc4ccccc4)c3C2=O)C(=O)N1 (stereo unspecified)
64 to 65	CCOCc1nc2cnc3ccccc3c2n1CCC(C)C

melting point [°C]	SMILES
162 to 166	Clc1cc(Cl)cc(-c2nc(-c3ccccn3)no2)c1
184 to 185	COC(=O)c1cc(C(=O)N2CCSCC2)c2cc(Cc3ccc(F)cc3)cnc2c1O
170 to 172	CSc1nnc(-c2ccc(C)cc2)c(-c2ccc(C)cc2)n1
40	C=CCOc1ccc(C(=O)CC(=O)C(C)(C)C)cc1OC
273 to 274	Cc1cccc(NC(=O)c2cn(-c3ccccc3)c3ccccc3c2=O)n1
139 to 141	COc1cc(CC(N)=O)c(CCc2ccc(O)c(OCc3ccccc3)c2)c(OC)c1OC
142	Cc1nc(C(=O)NS(=O)(=O)c2c(C)csc2C(=O)OC(C)C)no1
86 to 87	CCCCCCCCCCCCCCCCCCN(C)S(=O)(=O)c1ccc(Cl)c([N+](=O)[O-])c1
226 to 228	CCN1CCN(C(=O)N2CCC(N3N=C(c4ccc(OC)c(OC)c4)[C@H]4CC=CC[C@H]4C3=O)CC2)C(=O)C1=O
181 to 182	CC(C)(C)c1coc2c(-c3ccc(F)cc3)c(-c3ccc(S(C)(=O)=O)cc3)nn12
159	FC(F)c1cc(-c2ccc(C(F)(F)F)cc2)nc2c(I)ncn12
194 to 196	COc1ccc2c(c1)Sc1cc(OC)ccc1N2
132 to 133	CNC(=O)c1cc2c(Oc3ccc(OC(F)(F)F)cc3)cncc2s1
109	COc1ccc(Cl)cc1C(=O)NCc1ccc(-c2ccc(OC(C)(C)CO)cc2)cc1
90 to 95	COc1cc(OCc2cccnc2)ccc1/C=C/c1cc(/C=C/c2ccc3cc[nH]c3c2)n[nH]1
105 to 107	CC1(CN2CCN(C(=O)OCc3ccc(C(=O)c4ccccc4)cc3)CC2)Cn2cc([N+](=O)[O-])nc2O1 (stereo unspecified)
164 to 166	Cc1ccc(-c2nc3c(O)cccc3s2)cc1
175 to 180	Cc1c(C)c2c(c(C)c1O)CCC(C)(CCOc1ccc(CC3SC(=N)NC3=O)cc1)O2 (stereo unspecified)
173 to 175	CNC(=O)c1ccc(CN2CCN(c3nc(C)c(C(C)=O)s3)C2=O)cc1
117 to 118	CSc1cc2cnc(-c3ccccc3)n2c(SC)n1
105 to 108	COC(=O)C=C(OC)c1ccccc1OCc1csc(-c2ccc(F)cc2)n1

SMILES	melting point [°C]
CCN(CC)C(=O)CN1C(=O)C(NC(=O)Nc2cccc(OC)c2)N=C(c2ccccc2)c2ccccc21 (stereo unspecified)	222 to 224
O=C1c2c(Cl)cccc2-n2cnc(C(=O)n3ccnc3)c2[C@@H]2CCCN12	240 to 242
O=C(NC1C(=O)N(CC23CC4CC(CC(C4)C2)C3)c2ccc(F)cc2N(c2ccccc2)C1=O)Oc1ccccc1 (stereo unspecified)	156 to 159
CN1CCC2(CC1)NC(=S)N(c1ccc(C#N)c(C(F)(F)F)c1)C2=N	> 264
CN1C(=O)CN=C(c2ccccc2F)c2c1ccc(NC(=O)Nc1ccc(Cl)cc1)c2Cl	285
CC1(CBr)SC2C(NC(=O)Cc3ccccc3)C(=O)N2C1C(=O)OCC(Cl)(Cl)Cl (stereo unspecified)	90 to 93
